From paper PMC4232510, “Identification of Functionally Important Residues of the Rat P2X4 Receptor by Alanine Scanning Mutagenesis of the Dorsal Fin and Left Flipper Domains” (PLoS ONE, 2014)
Where a chain is given by its changes, count along the chain named.

Legend:
rP2X4R E285A mutant = molecular target: T1, rP2X4R E285A mutant (Rattus norvegicus, UniProt P51577, E285A); experiment: whole-cell patch clamp, HEK293T cells expressing mutant; assay type: cell-based
T1 construct: expressed in transfected cells; host or cells: HEK293T
T1 sequence (P51577 1-388 E285A): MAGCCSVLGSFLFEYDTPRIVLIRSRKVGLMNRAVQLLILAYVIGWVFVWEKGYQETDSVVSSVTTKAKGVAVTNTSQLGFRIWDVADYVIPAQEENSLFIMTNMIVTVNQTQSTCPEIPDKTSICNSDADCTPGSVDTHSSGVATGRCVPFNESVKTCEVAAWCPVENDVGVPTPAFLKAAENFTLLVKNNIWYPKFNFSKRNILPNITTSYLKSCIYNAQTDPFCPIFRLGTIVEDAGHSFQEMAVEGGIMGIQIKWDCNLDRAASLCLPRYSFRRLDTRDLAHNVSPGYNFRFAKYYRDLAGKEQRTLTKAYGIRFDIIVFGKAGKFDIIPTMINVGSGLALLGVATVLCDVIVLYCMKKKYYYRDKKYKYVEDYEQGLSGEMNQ

rP2X4R N287A mutant = molecular target: T2, rP2X4R N287A mutant (Rattus norvegicus, UniProt P51577, N287A); experiment: as above; assay type: cell-based
T2 construct: expressed in transfected cells; host or cells: HEK293T
T2 sequence (P51577 1-388 N287A): T1 sequence (P51577 1-388 E285A) with A285E, N287A

[1] = 100 µM ATP 60 s, biexponential fit
[2] = contribution of τdes2, 100 µM ATP 60 s
[3] = decay after removal of 1 or 3 µM ATP, 3 µM IVM
[4] = naïve receptors, 2–5 s application
[5] = 3 µM IVM 4-6 min vs IVM-untreated

Row | Structure (SMILES) | τdes1 (rP2X4R E285A mutant; [1]) [s] | τdes2 (rP2X4R E285A mutant; [1]) [s] | Imax (rP2X4R E285A mutant; 100–1000 µM ATP) [nA] | Imax+IVM (rP2X4R E285A mutant; ATP after 3 µM IVM 4-6 min) [nA] | A2 /(A1+A2) (rP2X4R E285A mutant; [2]) [%] | τoff +IVM (rP2X4R E285A mutant; [3]) [s] | EC50 (rP2X4R E285A mutant; [4]) [µM] | τdes (rP2X4R E285A mutant; weighted, 100 µM ATP 60 s) [s] | τdes1 (rP2X4R N287A mutant; [1]) [s] | τdes2 (rP2X4R N287A mutant; [1]) [s] | Imax (rP2X4R N287A mutant; 100–1000 µM ATP) [nA] | Imax+IVM (rP2X4R N287A mutant; ATP after 3 µM IVM 4-6 min) [nA] | A2 /(A1+A2) (rP2X4R N287A mutant; [2]) [%] | τoff +IVM (rP2X4R N287A mutant; [3]) [s] | EC50 (rP2X4R N287A mutant; [4]) [µM] | τdes (rP2X4R N287A mutant; weighted, 100 µM ATP 60 s) [s] | Fold incr. Imax (rP2X4R E285A mutant; [5]) [fold] | Fold incr. Imax (rP2X4R N287A mutant; [5]) [fold]
1 | Nc1ncnc2c1ncn2[C@@H]1O[C@H](COP(=O)(O)OP(=O)(O)OP(=O)(O)O)[C@@H](O)[C@H]1O [ATP] | 0.9 ± 0.2 | 8.5 ± 3.6 | 2.0 ± 0.5 | 2.6 ± 0.6 | 65 ± 2 | 24 ± 4.3 | 7.1 ± 3 | 6.0 ± 2.6 | 1.6 ± 0.1 | 10.2 ± 3.0 | 1.6 ±0.2 | 4.0 ± 0.6 | 75 ± 16 | 16 ± 2.5 | 3.2 ± 1 | 7.1 ± 0.5 |  | 
2 | CC[C@H](C)[C@H]1O[C@]2(CC[C@@H]1C)C[C@@H]1C[C@@H](C/C=C(\C)[C@@H](O[C@H]3C[C@H](OC)[C@@H](O[C@H]4C[C@H](OC)[C@@H](O)[C@H](C)O4)[C@H](C)O3)[C@@H](C)/C=C/C=C3\CO[C@@H]4[C@H](O)C(C)=C[C@@H](C(=O)O1)[C@]34O)O2 [IVM, ivermectin] |  |  |  |  |  |  |  |  |  |  |  |  |  |  |  |  | 1.3 ± 0.4 | 3.3 ± 0.4
